Results reported in PubChem BioAssay AID2060499 (Molecular Pharmacology Branch, DTP, NCI, 2025).

Test system: 777334-354-R2-J4-PDC tumor spheroids with HUVEC/MSC, viability
Assay: Anticancer human tumor 777334-354-R2-J4-PDC patient-derived pancreatic adenocarcinoma cell line growth inhibition [GQUAD]
Settings: for IC50: curve of first compound; for viability, T/C: stronger effect = lower value
Summary of the method: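 Viability of tumor cells grown as complex spheroids with endothelial and stromal cells, exposed to drug combinations. Top concentration at or near clinical Cmax (else 10 microM), diluted in half-log increments.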

[1] = second compound 0.0316 µM, first compound 0.0316 µM
[2] = second compound 0.0316 µM, first compound 0.1 µM
[3] = second compound 0.0316 µM, first compound 0.316 µM
[4] = second compound 0.0316 µM, first compound 1 µM
[5] = second compound 0.0316 µM, first compound 3.16 µM
[6] = second compound 0.0316 µM, first compound 10 µM
[7] = second compound 0.1 µM, first compound 0.0316 µM
[8] = second compound 0.1 µM, first compound 0.1 µM
[9] = second compound 0.1 µM, first compound 0.316 µM
[10] = second compound 0.1 µM, first compound 1 µM
[11] = second compound 0.1 µM, first compound 3.16 µM
[12] = second compound 0.1 µM, first compound 10 µM
[13] = second compound 0.316 µM, first compound 0.0316 µM
[14] = second compound 0.316 µM, first compound 0.1 µM
[15] = second compound 0.316 µM, first compound 0.316 µM
[16] = second compound 0.316 µM, first compound 1 µM
[17] = second compound 0.316 µM, first compound 3.16 µM
[18] = second compound 0.316 µM, first compound 10 µM
[19] = second compound 1 µM, first compound 0.0316 µM
[20] = second compound 1 µM, first compound 0.1 µM
[21] = second compound 1 µM, first compound 0.316 µM
[22] = second compound 1 µM, first compound 1 µM
[23] = second compound 1 µM, first compound 3.16 µM
[24] = second compound 1 µM, first compound 10 µM
[25] = second compound 3.16 µM, first compound 0.0316 µM
[26] = second compound 3.16 µM, first compound 0.1 µM
[27] = second compound 3.16 µM, first compound 0.316 µM
[28] = second compound 3.16 µM, first compound 1 µM
[29] = second compound 3.16 µM, first compound 3.16 µM
[30] = second compound 3.16 µM, first compound 10 µM
[31] = second compound 10 µM, first compound 0.0316 µM
[32] = second compound 10 µM, first compound 0.1 µM
[33] = second compound 10 µM, first compound 0.316 µM
[34] = second compound 10 µM, first compound 1 µM
[35] = second compound 10 µM, first compound 3.16 µM
[36] = second compound 10 µM, first compound 10 µM
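Also: spheroids exposed to compounds for 7 days before readout.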

COc1ncnc(C2CC2)c1-c1ncc2cnn(Cc3ccc(-c4nc(C(F)(F)F)cn4C(C)C)cc3)c2n1 + Cc1cnc(CNC(=O)c2c(=O)c3ccc(N4CCCN(C)CC4)nc3n3c2sc2ccccc23)cn1
IC50 (second compound 0.0316 µM): > 10000 nM | IC50 (second compound 0.1 µM): > 10000 nM | IC50 (second compound 0.316 µM): > 10000 nM | IC50 (second compound 1 µM): > 10000 nM | IC50 (second compound 3.16 µM): > 10000 nM | IC50 (second compound 10 µM): > 10000 nM | viability, T/C [1]: 106% | viability, T/C [2]: 94.8% | viability, T/C [3]: 101% | viability, T/C [4]: 92.5% | viability, T/C [5]: 106% | viability, T/C [6]: 95% | viability, T/C [7]: 91.5% | viability, T/C [8]: 83.8% | viability, T/C [9]: 97.6% | viability, T/C [10]: 80.8% | viability, T/C [11]: 92.4% | viability, T/C [12]: 90.3% | viability, T/C [13]: 82.8% | viability, T/C [14]: 81% | viability, T/C [15]: 72% | viability, T/C [16]: 85.8% | viability, T/C [17]: 87.8% | viability, T/C [18]: 86.5% | viability, T/C [19]: 65.3% | viability, T/C [20]: 75.7% | viability, T/C [21]: 67.4% | viability, T/C [22]: 76.3% | viability, T/C [23]: 77.4% | viability, T/C [24]: 82.1% | viability, T/C [25]: 64.3% | viability, T/C [26]: 73.5% | viability, T/C [27]: 55% | viability, T/C [28]: 65.7% | viability, T/C [29]: 80.8% | viability, T/C [30]: 70.3% | viability, T/C [31]: 55.5% | viability, T/C [32]: 63.6% | viability, T/C [33]: 57.9% | viability, T/C [34]: 59.2% | viability, T/C [35]: 58.2% | viability, T/C [36]: 56.7%

Cc1[nH]c2ccccc2c1CCNCc1ccc(/C=C/C(=O)NO)cc1 + Cc1cnc(CNC(=O)c2c(=O)c3ccc(N4CCCN(C)CC4)nc3n3c2sc2ccccc23)cn1
IC50 (second compound 0.0316 µM): 144 nM | IC50 (second compound 0.1 µM): 155 nM | IC50 (second compound 0.316 µM): 122 nM | IC50 (second compound 1 µM): 114 nM | IC50 (second compound 3.16 µM): 89.3 nM | IC50 (second compound 10 µM): < 0.999 nM | viability, T/C (second compound 0.0316 µM, first compound 0.000999 µM): 95.1% | viability, T/C (second compound 0.0316 µM, first compound 0.00316 µM): 89.1% | viability, T/C (second compound 0.0316 µM, first compound 0.00999 µM): 93.1% | viability, T/C [1]: 73.6% | viability, T/C (second compound 0.0316 µM, first compound 0.0999 µM): 57.9% | viability, T/C [3]: 35.5% | viability, T/C (second compound 0.1 µM, first compound 0.000999 µM): 83.1% | viability, T/C (second compound 0.1 µM, first compound 0.00316 µM): 69.4% | viability, T/C (second compound 0.1 µM, first compound 0.00999 µM): 68.1% | viability, T/C [7]: 73.2% | viability, T/C (second compound 0.1 µM, first compound 0.0999 µM): 58.9% | viability, T/C [9]: 35.3% | viability, T/C (second compound 0.316 µM, first compound 0.000999 µM): 73.7% | viability, T/C (second compound 0.316 µM, first compound 0.00316 µM): 79.5% | viability, T/C (second compound 0.316 µM, first compound 0.00999 µM): 58.2% | viability, T/C [13]: 69.3% | viability, T/C (second compound 0.316 µM, first compound 0.0999 µM): 53.7% | viability, T/C [15]: 32.9% | viability, T/C (second compound 1 µM, first compound 0.000999 µM): 70.8% | viability, T/C (second compound 1 µM, first compound 0.00316 µM): 66.2% | viability, T/C (second compound 1 µM, first compound 0.00999 µM): 68.2% | viability, T/C [19]: 58.1% | viability, T/C (second compound 1 µM, first compound 0.0999 µM): 56% | viability, T/C [21]: 26.4% | viability, T/C (second compound 3.16 µM, first compound 0.000999 µM): 58% | viability, T/C (second compound 3.16 µM, first compound 0.00316 µM): 58.6% | viability, T/C (second compound 3.16 µM, first compound 0.00999 µM): 59.4% | viability, T/C [25]: 53.8% | viability, T/C (second compound 3.16 µM, first compound 0.0999 µM): 50.3% | viability, T/C [27]: 18.6% | viability, T/C (second compound 10 µM, first compound 0.000999 µM): 53.2% | viability, T/C (second compound 10 µM, first compound 0.00316 µM): 46.2% | viability, T/C (second compound 10 µM, first compound 0.00999 µM): 51.7% | viability, T/C [31]: 46.1% | viability, T/C (second compound 10 µM, first compound 0.0999 µM): 42.6% | viability, T/C [33]: 1.07%

O=C(NO)c1cnc(N2CCN(S(=O)(=O)c3ccc4ccccc4c3)CC2)nc1 + Cc1cnc(CNC(=O)c2c(=O)c3ccc(N4CCCN(C)CC4)nc3n3c2sc2ccccc23)cn1
IC50 (second compound 0.0316 µM): 726 nM | IC50 (second compound 0.1 µM): 332 nM | IC50 (second compound 0.316 µM): 537 nM | IC50 (second compound 1 µM): 474 nM | IC50 (second compound 3.16 µM): 331 nM | IC50 (second compound 10 µM): < 31.6 nM | viability, T/C [1]: 83.7% | viability, T/C [2]: 71.9% | viability, T/C [3]: 77.2% | viability, T/C [4]: 39.7% | viability, T/C [5]: 3.07% | viability, T/C [6]: 0.21% | viability, T/C [7]: 90.3% | viability, T/C [8]: 63.1% | viability, T/C [9]: 55.2% | viability, T/C [10]: 36.6% | viability, T/C [11]: 5.24% | viability, T/C [12]: 0.33% | viability, T/C [13]: 69.3% | viability, T/C [14]: 72% | viability, T/C [15]: 53.8% | viability, T/C [16]: 42.7% | viability, T/C [17]: 5.34% | viability, T/C [18]: 0.23% | viability, T/C [19]: 65.6% | viability, T/C [20]: 60% | viability, T/C [21]: 55% | viability, T/C [22]: 37.7% | viability, T/C [23]: 4.8% | viability, T/C [24]: 0.13% | viability, T/C [25]: 49% | viability, T/C [26]: 53.8% | viability, T/C [27]: 50.2% | viability, T/C [28]: 31.5% | viability, T/C [29]: 0.68% | viability, T/C [30]: 0.12% | viability, T/C [31]: 50.2% | viability, T/C [32]: 44.8% | viability, T/C [33]: 48.4% | viability, T/C [34]: 0.22% | viability, T/C [35]: 2.65% | viability, T/C [36]: 0.22%
